# According to patent US6093702A, “Mixtures of dideoxy-nucleosides and hydroxycarbamide for inhibiting retroviral spread” (The United States of America as represented by the …, priority 1995, dated 2000):
# “Also recorded” adds a separate entry of the source. Read-outs that look alike come from different tables or passages of the source.
# Tests used:
# HIV-1 virus strain IIIB = test: microbe, parasite or virus in culture; conditions: for inhibition at 5 µM: read-out: inhibition of viral replication; for effect on viral replication (in words): non-activated CD4+ lymphocytes, HC 0.05 or 0.15 mM, ddI or AZT 5 μM; for p24-HIV production in culture supernatant: day 15, infected control 86215
# Protocol: (§1) Non-activated CD4^+ cells were infected, then treated for 7 days by HC, ddI or the combination of the two, then activated by PHA and IL-2 (PHA-IL-2).
# (§2) The CD4^+ lymphocytes were purified from PBMC with immunomagnetic beads (Dynabeads* M450). These cells were infected with the HIV-1 virus strain IIIB at a multiplicity of infection of 5 000 tissue culture infectious dose (TCID) per 10^6 cells (241 pg/ml p24 antigen equivalent of virus). After 2 hours of virus-cell contact, the cells were washed twice and placed in the culture medium RPMI 1640 (supplemented with 10% fetal calf serum (FCS), 2 mM glutamine, penicillin 100 IU/ml and Streptomycin 100 μg/ml) at a density of 1.3×10^6 cells/ml. ddI was immediately added at a concentration of 5 μM and HC at concentrations of 0.05 mM and […]. The drugs and culture medium were partially renewed (50%) on day 4, maintaining the same concentration of each. On day 7, in order to remove the drugs, the cells were washed twice and put back in culture in the presence of PHA at a concentration of 1 μg/ml and recombinant IL-2 at a concentration of 20 U/ml. This culture was maintained until day 25, with partial renewal (50%) of the medium twice a week. The number of viable cells was quantified by a tetrazolium-based colorimetric 3-(4,5-dimethylthiazol-2-yl)-2,5-diphenyltetrazolium bromide (MTT) method (Pauwels, R. et al J. Virol. Methods, 20, 309-321, (1988)), and activity is expressed as a percentage of the signal in the drug-free and virus-free control. Viral replication was quantified by measuring the HIV-1 p24 antigen by ELISA using the Dupont de Nemours kit.
# In FIG. 2, there is shown a study of the activity of the combination of AZT and HC on non-activated CD4^+ lymphocytes infected with the HIV virus. The CD4^+ lymphocytes were purified from PBMC with immunomagnetic beads (Dynabeads* M450). These cells were infected with the HIV-1 virus strain IIIB at a multiplicity of infection of 5 000 tissue culture infectious dose (TCID) per 10^6 cells (241 pg/ml p24 antigen equivalent of virus). After 2 hours of virus-cell contact, the cells were washed twice and placed in the culture medium RPMI 1640 (supplemented with 10% FCS, 2 mM glutamine, penicillin 100 IU/ml and streptomycin 100 μg/ml) at a density of 1.3×10^6 cells/ml. AZT was immediately added at a concentration of 5 μM and HC at a concentration of 0.05 mM and 0.15 mM. The drugs and culture medium were partially renewed (50%) on day 4, maintaining the same concentration of each. On day 7, in order to remove the drugs, the cells were washed twice and put back in culture in the presence of PHA at a concentration of 1 μg/ml and recombinant IL-2 at a concentration of 20 U/ml. This culture was maintained until day 25, with partial renewal (50%) of the medium twice a week. The number of viable cells was quantified by a tetrazolium-based colorimetric 3-(4,5-dimethylthiazol-2-yl)-2,5-diphenyltetrazolium bromide (MTT) method (Pauwels, R. et al J. Virol. Methds, 20,309-321, (1988)), and activity is expressed as a percentage of the signal in the drug-free and virus-free control. Viral replication was quantified by measuring the HIV-1 p24 antigen by ELISA using the Dupont de Nemours kit.
# in vitro = conditions: human, cd4+ lymphocytes
# Protocol: as §1
# as §2, with “This culture was maintained until day 25, with partial renewal (50%) of the medium twice a week.” left out
# (§3) In FIG. 2, there is shown a study of the activity of the combination of AZT and HC on non-activated CD4^+ lymphocytes infected with the HIV virus. […] The number of viable cells was quantified by a tetrazolium-based colorimetric 3-(4,5-dimethylthiazol-2-yl)-2,5-diphenyltetrazolium bromide (MTT) method (Pauwels, R. et al J. Virol. Methds, 20,309-321, (1988)), and activity is expressed as a percentage of the signal in the drug-free and virus-free control. Viral replication was quantified by measuring the HIV-1 p24 antigen by ELISA using the Dupont de Nemours kit.
# [1] = tested on: PBMC preactivated with PHA and IL-2; test: Inhibitory concentration 50% in preactivated PBMC by MTT test; format: cell-based; conditions: 72 h, read-out: IC50 (inhibitory concentration 50%), after 3 days
# Protocol: The PBMC were purified from peripheral blood by discontinous Ficoll density gradient centrifugation. The cells were grown at a density of 1.3×10^6 cells/ml in RPMI 1640 medium supplemented with 10% FCS, 2 mM glutamine, penicillin 100 IU/ml and streptomycin 100 μg/ml, in the presence of PHA at a concentration of 1 μg/ml and recombinant IL-2 at 20 U/ml for 72 hours, then infected by HIV-1 strain IIIB at a multiplicity of 5000 TCID for 10^6 cells (241 pg/ml p24 antigen equivalent of virus). In FIG. 3, the first time point represent viral infection of the cells. After 2 hours of virus-cell contact, the cells were washed twice and placed in the culture medium containing IL-2 but without PHA in the presence of ddI at a concentration of 10 μM and of HC at a concentration of 0.15 mM. These cultures were maintained for 20 days, with partial renewal of the medium and of the two drugs twice a week maintaining the initial concentration. […] The number of viable cells were quantified by a tetrazolium-based colorimetric 3-(4,5-dimethylthiazol-2-yl)-2,5-diphenyltetrazolium bromide (MTT) method (Pauwels, R. et al J. Virol. Methods, 20:309-321, (1988)), and activity is expressed as a percentage of the signal in the drug-free and virus-free control. Viral replication was quantified by measuring the HIV-1 p24 antigen by ELISA using the Dupont de Nemours kit.
# [2] = Cytotoxicity in non-activated lymphocytes (PBLs) pretreated 24 h and then activated 48 h; format: cell-based; conditions: human, HC 1 mM, 24 h pretreatment, then PHA and IL-2 for 48 h in presence of HC, read-out: PBLs dying due to the drug's toxicity
# Source text: Under such conditions, greater than 70% of the PBLs die due to the drug's toxicity.
# [3] = tested on: dNTP pools in PHA-stimulated PBLs; conditions: HC 1 mM, cited from earlier work
# HIV-1 strain IIIB = test: microbe, parasite or virus in culture; conditions: for p24 production: day 6
# Protocol: The PBMC were purified from peripheral blood by discontinous Ficoll density gradient centrifugation. The cells were grown at a density of 1.3×10^6 cells/ml in RPMI 1640 medium supplemented with 10% FCS, 2 mM glutamine, penicillin 100 IU/ml and streptomycin 100 μg/ml, in the presence of PHA at a concentration of 1 μg/ml and recombinant IL-2 at 20 U/ml for 72 hours, then infected by HIV-1 strain IIIB at a multiplicity of 5000 TCID for 10^6 cells (241 pg/ml p24 antigen equivalent of virus). In FIG. 3, the first time point represent viral infection of the cells. After 2 hours of virus-cell contact, the cells were washed twice and placed in the culture medium containing IL-2 but without PHA in the presence of ddI at a concentration of 10 μM and of HC at a concentration of 0.15 mM. These cultures were maintained for 20 days, with partial renewal of the medium and of the two drugs twice a week maintaining the initial concentration. At day 6 and day 14 fresh uninfected donor PBMC were added (5×10^5 /ml) to replenish aged cultures (Nature, 361:1993, 650-654). The number of viable cells were quantified by a tetrazolium-based colorimetric 3-(4,5-dimethylthiazol-2-yl)-2,5-diphenyltetrazolium bromide (MTT) method (Pauwels, R. et al J. Virol. Methods, 20:309-321, (1988)), and activity is expressed as a percentage of the signal in the drug-free and virus-free control. Viral replication was quantified by measuring the HIV-1 p24 antigen by ELISA using the Dupont de Nemours kit.
# [4] = Cell viability of preactivated PBMC by Trypan Blue exclusion; format: cell-based; conditions: human, HC 0.15 mM, 2% Trypan Blue exclusion, read-out: cellular viability
# [5] = tested on: non-activated CD4+ lymphocytes; test: in vitro; conditions: after PHA-IL-2 stimulation
# Protocol: as §1
# as §2, with “This culture was maintained until day 25, with partial renewal (50%) of the medium twice a week.” left out
# as §3
# [6] = Human immunodeficiency virus 1, IIIB, Lymphocyte
# [7] = single drug 5 μM, infected control 86215 pg p24/ml
# [8] = Human immunodeficiency virus 1, IIIB, PBMC, 144 h, read-out: inhibition of viral replication
structure (smiles),measurement,setting,value
"Cc1cn([C@H]2C[C@H](N=[N+]=[N-])[C@@H](CO)O2)c(=O)[nH]c1=O [AZT, 3'-azido-2',3'-dideoxythymidine]",log reduction at 5 µM,"HIV-1 virus strain IIIB; Human immunodeficiency virus 1, IIIB, Lymphocyte, read-out: antiviral activity (log reduction)",< 1
same,inhibition at 5 µM,HIV-1 virus strain IIIB; [6],88.4%
same,effect on viral replication (in words),HIV-1 virus strain IIIB,only slight antiviral activity; also recorded: only a slight effect on viral replication
same,p24 production,HIV-1 virus strain IIIB; [7],10300 pg p24/ml
"NC(=O)NO [HC, hydroxycarbamide]",cytotoxicity at 50 µM,in vitro,> 50%
same,cytotoxicity at 150 µM,in vitro,> 50%
same,IC50,[1],150 µM
same,"cytotoxicity at 72 h, 1000 µM",[2],> 70%
same,p24-HIV production in culture supernatant,HIV-1 virus strain IIIB; HC 0.05 mM,75460 pg of p24/ml
same,p24-HIV production in culture supernatant,HIV-1 virus strain IIIB; HC 0.15 mM,82005 pg of p24/ml
same,effect on viral replication (in words),HIV-1 virus strain IIIB,incapable of preventing the production of infectious virions
same,effect on dNTP levels and DNA synthesis rate (in words),[3]; listed as hydroxyurea,decreases dNTP levels and the DNA synthesis rate to levels comparable to quiescent PBLs; also recorded: decreases the dNTP levels and the DNA synthesis rate to levels comparable to quiescent PBLs
same,effect on dNTP levels and DNA synthesis rate (in words),[3],partially reduces the various dNTP pools studied
same,p24 production,HIV-1 strain IIIB; HC alone 0.15 mM,12500 pg p24/ml
same,inhibition at 150 µM,HIV-1 strain IIIB; [8],82.6%
same,"viability at 72 h, 150 µM",[4],> 90%
"OC[C@@H]1CC[C@H](n2cnc3c(O)ncnc32)O1 [ddI, 2',3'-dideoxy-inosine]",proliferative cellular response / cytopathic effect (in words),[5],cytopathic effect was observed later
same,inhibition at 5 µM,HIV-1 virus strain IIIB; [6],99.1%
same,p24 production,"HIV-1 virus strain IIIB; ddI 5 μM alone, day 25",101080 pg p24/ml
same,effect on viral replication (in words),HIV-1 virus strain IIIB,reached substantially the same level of p24 production as the infected control; also recorded: only temporarily and partially inhibited
same,p24 production,HIV-1 virus strain IIIB; [7],766 pg p24/ml
same,inhibition at 10 µM,HIV-1 strain IIIB; [8],97.1%
same,p24 production,HIV-1 strain IIIB; ddI alone 10 μM,2071 pg p24/ml
